In PubChem BioAssay (NCI):
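All cell lines were grown in 96-well plates and treated with compound for 48 hours. TGI denotes the concentration required for complete inhibition of growth.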

Legend:
Experiment in all cases: DTP human tumour cell line panel, 48 h
M19-MEL melanoma = tested on: M19-MEL melanoma
LOX IMVI melanoma = tested on: LOX IMVI melanoma
U251 CNS = tested on: U251 CNS
HOP-62 NSCLC = tested on: HOP-62 NSCLC
MOLT-4 leukemia = tested on: MOLT-4 leukemia
OVCAR-5 ovarian = tested on: OVCAR-5 ovarian
KM20L2 colon = tested on: KM20L2 colon
SK-MEL-2 melanoma = tested on: SK-MEL-2 melanoma
SW-620 colon = tested on: SW-620 colon
NCI-H460 lung = tested on: NCI-H460 lung
HCC-2998 colon = tested on: HCC-2998 colon
DMS 273 small cell lung = tested on: DMS 273 small cell lung
M14 melanoma = tested on: M14 melanoma
786-0 renal = tested on: 786-0 renal
UO-31 renal = tested on: UO-31 renal
HL-60(TB) leukemia = tested on: HL-60(TB) leukemia
HCT-15 colon = tested on: HCT-15 colon
NCI-H23 lung = tested on: NCI-H23 lung
OVCAR-8 ovarian = tested on: OVCAR-8 ovarian
A549 NSCLC = tested on: A549 NSCLC
NCI-H522 lung = tested on: NCI-H522 lung
SF-268 CNS = tested on: SF-268 CNS
EKVX NSCLC = tested on: EKVX NSCLC
CAKI-1 renal = tested on: CAKI-1 renal
SK-MEL-5 melanoma = tested on: SK-MEL-5 melanoma
SR leukemia = tested on: SR leukemia
NCI-H226 lung = tested on: NCI-H226 lung
UACC-62 melanoma = tested on: UACC-62 melanoma
LXFL 529 NSCLC = tested on: LXFL 529 NSCLC
OVCAR-3 ovarian = tested on: OVCAR-3 ovarian
RXF 393 renal = tested on: RXF 393 renal
A498 renal = tested on: A498 renal
SNB-78 CNS = tested on: SNB-78 CNS
KM12 colon = tested on: KM12 colon
RXF-631 renal = tested on: RXF-631 renal
HOP-18 NSCLC = tested on: HOP-18 NSCLC
HT29 colon = tested on: HT29 colon
UACC-257 melanoma = tested on: UACC-257 melanoma
OVCAR-4 ovarian = tested on: OVCAR-4 ovarian
MALME-3M melanoma = tested on: MALME-3M melanoma
SK-OV-3 ovarian = tested on: SK-OV-3 ovarian
SF-539 CNS = tested on: SF-539 CNS
TK-10 renal = tested on: TK-10 renal
RPMI-8226 leukemia = tested on: RPMI-8226 leukemia
COLO 205 colon = tested on: COLO 205 colon
SNB-75 CNS = tested on: SNB-75 CNS
CCRF-CEM leukemia = tested on: CCRF-CEM leukemia
SNB-19 CNS = tested on: SNB-19 CNS
HCT-116 colon = tested on: HCT-116 colon
IGROV1 ovarian = tested on: IGROV1 ovarian
SF-295 CNS = tested on: SF-295 CNS
ACHN renal = tested on: ACHN renal
DLD-1 colon = tested on: DLD-1 colon
HOP-92 NSCLC = tested on: HOP-92 NSCLC
DMS 114 small cell lung = tested on: DMS 114 small cell lung
SN12C renal = tested on: SN12C renal
SK-MEL-28 melanoma = tested on: SK-MEL-28 melanoma
K-562 leukemia = tested on: K-562 leukemia

Cc1ccc(NC(=O)C(=O)C2C(=O)NC(=O)NC2=O)c(C)c1
TGI (M19-MEL melanoma): > 100 µM | TGI (LOX IMVI melanoma): > 100 µM | TGI (U251 CNS): > 100 µM | TGI (HOP-62 NSCLC): > 100 µM | TGI (MOLT-4 leukemia): > 100 µM | TGI (OVCAR-5 ovarian): > 100 µM | TGI (KM20L2 colon): > 100 µM | TGI (SK-MEL-2 melanoma): > 100 µM | TGI (SW-620 colon): > 100 µM | TGI (NCI-H460 lung): > 100 µM | TGI (HCC-2998 colon): > 100 µM | TGI (DMS 273 small cell lung): > 100 µM | TGI (M14 melanoma): > 100 µM | TGI (786-0 renal): > 100 µM | TGI (UO-31 renal): > 100 µM | TGI (HL-60(TB) leukemia): > 100 µM | TGI (HCT-15 colon): > 100 µM | TGI (NCI-H23 lung): > 100 µM | TGI (OVCAR-8 ovarian): > 100 µM | TGI (A549 NSCLC): > 100 µM | TGI (NCI-H522 lung): > 100 µM | TGI (SF-268 CNS): > 100 µM | TGI (EKVX NSCLC): > 100 µM | TGI (CAKI-1 renal): > 100 µM | TGI (SK-MEL-5 melanoma): > 100 µM | TGI (SR leukemia): > 100 µM | TGI (NCI-H226 lung): 37.8 µM | TGI (UACC-62 melanoma): > 100 µM | TGI (LXFL 529 NSCLC): > 100 µM | TGI (OVCAR-3 ovarian): > 100 µM | TGI (RXF 393 renal): > 100 µM | TGI (A498 renal): > 100 µM | TGI (SNB-78 CNS): > 100 µM | TGI (KM12 colon): > 100 µM | TGI (RXF-631 renal): > 100 µM | TGI (HOP-18 NSCLC): > 100 µM | TGI (HT29 colon): > 100 µM | TGI (UACC-257 melanoma): > 100 µM | TGI (OVCAR-4 ovarian): > 100 µM | TGI (MALME-3M melanoma): > 100 µM | TGI (SK-OV-3 ovarian): > 100 µM | TGI (SF-539 CNS): > 100 µM | TGI (TK-10 renal): > 100 µM | TGI (RPMI-8226 leukemia): > 100 µM | TGI (COLO 205 colon): 26.8 µM | TGI (SNB-75 CNS): > 100 µM | TGI (CCRF-CEM leukemia): > 100 µM | TGI (SNB-19 CNS): > 100 µM | TGI (HCT-116 colon): > 100 µM | TGI (IGROV1 ovarian): > 100 µM | TGI (SF-295 CNS): > 100 µM | TGI (ACHN renal): > 100 µM | TGI (DLD-1 colon): > 100 µM | TGI (HOP-92 NSCLC): > 100 µM | TGI (DMS 114 small cell lung): > 100 µM | TGI (SN12C renal): 28.2 µM | TGI (SK-MEL-28 melanoma): > 100 µM | TGI (K-562 leukemia): > 100 µM
